Measurements reported in patent publication US8105979B2, “Active ingredient combinations with insecticidal and acaricidal properties” (Bayer CropScience AG, priority 2006, dated 2012).

Legend:
[1] = test system: Phaedon cochleariae larvae; test: Phaedon cochleariae larvae test (cabbage leaf dip); settings: single active compound
Myzus persicae = Myzus persicae test (cabbage leaf dip); type: in vivo; settings: single active compound

Cc1cc(C)c(C2=C(OC(=O)CC(C)(C)C)C3(CCCC3)OC2=O)c(C)c1 [spiromesifen, reference compound]
Kill in % after 6d ([1]; 100 ppm): 10%
Kill in % after 1d (Myzus persicae; 100 ppm): 0%

CN(Cc1ccc(Cl)nc1)C1=CC(=O)OC1 [compound (Ia)]
Kill in % after 6d ([1]; 20 ppm): 5%
Kill in % after 4d ([1]; 100 ppm): 68%
Kill in % after 1d (Myzus persicae; 0.8 ppm): 70%

spirotetramate [reference compound]
Kill in % after 4d ([1]; 20 ppm): 5%
Kill in % after 1d (Myzus persicae; 0.8 ppm): 5%

O=C1C=C(N(Cc2ccc(Cl)nc2)C2CC2)CO1 [compound (Ib)]
Kill in % after 1d (Myzus persicae; 0.8 ppm): 10%
Kill in % after 1d (Myzus persicae; 4 ppm): 75%
